Experiment: Antimicrobial activity assay: whole-cell MIC by broth microdilution (NCCLS M7-A6)
Assay type: cell-based
Details: versus all the organisms named above (S. aureus WCUH29, S. pneumoniae 1629, S. pyogenes CN 10, E. faecalis 2, H. influenzae NEMC1, E. coli 7623, M. catarrhalis Ravasio); read-out: MIC
Outline: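 Broth microdilution per NCCLS M7-A6, with serial two-fold compound dilutions from 0.016 to 16 mcg/mL. MIC read as the lowest concentration inhibiting visible growth, using a mirror reader.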

Row | Compound | MIC [µg/mL]
1 | COc1ccc2ncc(F)c(CCN3CCC(C)(NC(=O)c4ccc5c(n4)NC(=O)CO5)CC3)c2n1 [Example 167, N-(1-{2-[3-fluoro-6-(methoxy)-1,5-naphthyridin-4-yl]ethyl}-4-methyl-4-piperidinyl)-3-oxo-3,4-dihydro-2H-pyrido[3,2-b][1,4]oxazine-6-carboxamide] | ≤ 2
2 | COc1ccc2ncc(F)c(CCN3CCC(C)(NC(=O)c4ccc5c(n4)NC(=O)CS5)CC3)c2n1 [Example 168, N-(1-{2-[3-fluoro-6-(methoxy)-1,5-naphthyridin-4-yl]ethyl}-4-methyl-4-piperidinyl)-3-oxo-3,4-dihydro-2H-pyrido[3,2-b][1,4]thiazine-6-carboxamide] | ≤ 2
3 | COc1ccc2ncc(F)c(CCN3CCC(NCc4ccc5c(c4)CCO5)CC3)c2n1.Cl.Cl [Example 178, N-(2,3-dihydro-1-benzofuran-5-ylmethyl)-1-{2-[3-fluoro-6-(methoxy)-1,5-naphthyridin-4-yl]ethyl}-4-piperidinamine dihydrochloride] | ≤ 2
